Source: patent US8088892B2, “Inhibitors of proteins from the Rho-GEF family” (Centre National de la Recherche Scientifique (C.N.R.S.), priority 2002, dated 2012)
Entries after “also recorded” stand apart in the source; their conditions may differ.

Legend:
[1] = test system: NGF-differentiated PC12 cells; experiment: LPA-induced neurite retraction; assay type: cell-based
Description: FIG. 6B represents histograms quantifying the effects of GFP-TRIPα or GFP on LPA (lysophosphatidic acid) induced neurite retraction in NGF-differentiated PC12 cells. The X-axis represents the time after LPA addition in minutes and the Y-axis represents the percentage of transfected cells with neurites.
Cells were transfected with GFP-TRIPα (white bars) or GFP (black bars) and differentiated with NGF (50 ng/ml). 10 μM LPA was added and neurite retraction was followed for 15 minutes. The number of transfected cells with neurites was counted from at least 200 cells in 3 independent experiments.
Among the serum components known to trigger neurite retraction and cell rounding in neuronal cells is lysophosphatidic acid (LPA) (Moolenaar et al., 1997). Thus, a similar neurite retraction assay was performed, except that, instead of the serum-containing medium, LPA (10 μM, Sigma) was added to TRIPα transfected and differentiated PC12 cells (FIG. 6B).

TrioDH2 (a.a. 1848-2096) = target: T1, TrioDH2 (a.a. 1848-2096) (Homo sapiens, UniProt O75962); experiment: Binding specificity of aptamers in yeast; details: growth on selective medium
T1 construct: TrioDH2 (a.a. 1848-2096); expressed in transfected cells; host or cells: yeast
From the text: Trx represents the thioredoxin protein with no inserted peptide.
In order to identify specific inhibitors of TrioGEFD2, a recently developed strategy was used, this strategy being derived from the yeast two hybrid system, where the cDNA library of preys has been replaced by a combinatorial library of short peptides (20 amino acids) in fusion with the bacterial protein thioredoxin A (Colas et al., 1996). This strategy has been successfully used to isolate specific inhibitors of the cyclin-dependent kinases (Cdks), the cell cycle transcription factor E2F, or the viral HPV16 E6 oncoprotein and HBEV core protein (Colas et al., 1996; Butz et al., 2001; Fabrizzio et al., 1999; Geyer et al., 2000). The TrioGEFD2 bait was constructed as follows: plasmid pMTHATrio1848-2298 (Bellanger et al., 1998) was digested with EcoRI/XhoI and the insert cloned in pEG202EcoRI/XhoI to generate the bait pEG202TroGEFD2. Yeast strain EGY048 (Colas et al., 1996) was transformed with pEG202TrioGEFD2 and subsequently with the library of Thioredoxin constrained aptamers according to standard procedures (Ito et al., 1983). After transformation, cells were allowed to recover for 4 hours in galactose containing medium before plating on selective galactose medium. Of the 2×10^6 screened colonies, those growing in the selective medium were recovered and retested for interaction. […]

Molecule	Effect on LPA-induced neurite retraction ([1]; 10 μM LPA, 15 min)	percentage of transfected cells with neurites after LPA addition ([1]; 15 min after 10 μM LPA)	Binding to the DH2 catalytic domain in yeast (TrioDH2 (a.a. 1848-2096))
AREGADGAICGYNLATLVMLGPSERVFCPLCEPCSSDIYELM [TRIPα, 42-amino acid peptide corresponding to the variable region of TRIAPα]	prevents serum- and LPA-induced neurite retraction; also recorded: also inhibited LPA-mediated neurite collapse	more than 37%	–
TRIAPα: aptamer of 154 amino acids: variable region of 42 amino acids inserted into the thioredoxin protein; tested as GST fusion (protein) MSDKIIHLTDDSFDTDVLKADGAILVDFWAEWCGPAREGADGAICGYNLATLVMLGPSERVFCPLCEPCSSDIYELMGPCKMIAPILDEIADEYQGKLTVAKLNIDQNPGTAPKYGIRGIPTLLLFKNGEVASATKVGALSKGQLKEFLDANLA	–	–	also binds to the DH2 catalytic domain; also recorded: interacted with the DH2 catalytic domain alone
